Laboratory results from PubChem BioAssay (NCI).
Several values for one entry are separate records, joined by “and”; a condition that tells them apart may be missing. Equal values may be shown once.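 Five concentrations, 48 hours, 96-well plates. GI50 is the concentration that inhibits growth by half. The concentration for full growth arrest is given as TGI.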

Tests used:
Test in all cases: DTP human tumour cell line panel, 48 h
[1] = tested on: DMS 114 small cell lung
[2] = tested on: LXFL 529 NSCLC
[3] = tested on: M19-MEL melanoma
[4] = tested on: SNB-78 CNS
[5] = tested on: XF 498 CNS
[6] = tested on: RXF-631 renal
[7] = tested on: BT-549 breast
[8] = tested on: PC-3 prostate
[9] = tested on: MDA-N

| Compound | TGI [1] | TGI [2] | TGI [3] | TGI [4] | TGI [5] | TGI [6] | TGI [7] | TGI [8] | other results |
| --- | --- | --- | --- | --- | --- | --- | --- | --- | --- |
| O=C(O)CCCCCO | > 100 µM | > 100 µM | > 100 µM | > 100 µM | > 100 µM | – | – | – | – |
| COc1cc([C@@H]2c3cc4c(cc3[C@@H](NCc3ccccc3)C3COC(=O)[C@@H]32)OCO4)cc(OC)c1O (stereo not given in full) | > 64.5 µM | > 100 µM | > 100 µM | > 100 µM | 41 µM | 30.2 µM | – | – | – |
| Cc1ccc(S(=O)(=O)SCc2ccccc2CSS(=O)(=O)c2ccc(C)cc2)cc1 | > 100 µM | 32.6 µM | 60.3 µM | > 100 µM | 47.4 µM | > 100 µM | – | – | – |
| O=C1[C@@H]2C3SC(c4ccccc43)[C@@H]2C(=O)N1c1ccccc1 | > 100 µM | > 100 µM | > 100 µM | > 100 µM | > 100 µM | – | – | – | – |
| CC[N+]1(C)CCC(O)(c2ccccc2)C(C(=O)c2ccccc2)C1 (stereo not given) | 44.3 µM | 23.6 µM | 36 µM | – | – | – | 27.7 µM | 33.9 µM | – |
| NCCCC1NC(=O)/C(=C(O)/C=C/C2CCC[C@@H]2CC2SCCS2)C1=O (stereo not given in full) | > 100 µM | > 100 µM | > 100 µM | – | – | – | – | – | – |
| CCc1ccc(Nc2cc(=O)[nH]c(=S)n2C)cc1 | > 100 µM | > 100 µM | > 100 µM | > 100 µM | > 100 µM | – | – | – | – |
| C/C(=N\NC(=O)c1ccccc1O)c1cccc(/C(C)=N/NC(=O)c2ccccc2O)n1 | 36.9 µM | 53.1 µM | > 74 µM | > 100 µM | 46.7 µM | – | > 100 µM | > 100 µM | GI50 [7]: 0.441 µM; GI50 [3]: 11.5 µM; TGI [9]: > 100 µM; GI50 [8]: 0.626 µM; GI50 [4]: 46.2 µM |
| COc1ccc2nc(NC(=O)C(=O)C(C(=O)c3ccccc3-c3ccccc3)C3OC(=O)c4ccccc43)sc2c1 (stereo not given) | 37.2 µM | 26.3 µM | 31 µM | > 100 µM | 45.7 µM | 71.6 µM | – | – | – |
| Nc1ccc2c(c1)CC1c3ccccc3C(C2)c2ccccc21 | > 100 µM | > 100 µM | > 100 µM | > 100 µM | – | – | – | – | – |
| CCC[CH2][Ge]([CH2]CCC)([CH2]CCC)[O]C(=O)C(OC)c1ccccc1 (stereo not given) | 34.4 µM | > 100 µM | > 100 µM | > 100 µM | > 100 µM | > 100 µM | – | – | GI50 [1]: 7.56 µM; GI50 [2]: 15.6 µM; GI50 [3]: 33.9 µM; GI50 [6]: 29.4 µM; GI50 [4]: > 100 µM; GI50 [5]: 41.1 µM |
| CN(C)CC/C(=N\Nc1ccc(Cl)c(Cl)c1)c1ccccc1 | 3.86 µM | 2.9 µM | 3.51 µM | 5.65 µM | – | – | – | – | – |
| COc1c(NC(=O)CC(C)=O)[c]([Hg][O]C(C)=O)c(OC)c(Cl)[c]1[Hg][O]C(C)=O | 13.5 µM | 11.1 µM | 25.1 µM | 34.2 µM | 6.41 µM | 13.7 µM | – | – | GI50 [1]: 1.61 µM; GI50 [2]: 2.63 µM; GI50 [3]: 12.6 µM; GI50 [6]: 3.02 µM; GI50 [4]: 15.5 µM; GI50 [5]: 2.55 µM |
| Cc1ccc(NC(=O)CC/C(CC(=O)c2ccc(F)cc2)=N\NC(=O)C(=O)NN)cc1C | > 100 µM | > 100 µM | > 100 µM | > 100 µM | – | > 100 µM | – | – | – |
| COc1cc(C(=O)C/C(CCC(=O)Nc2ccc(Cl)cc2Cl)=N/NC(=O)C(N)=O)ccc1O | > 100 µM | > 100 µM | > 100 µM | > 100 µM | > 100 µM | > 100 µM | – | – | – |
| CCOC(=O)N1N=NC2C3OC(C[C@@]3(C#N)OC(C)=O)[C@H]21 (stereo not given in full) | – | > 100 µM | > 100 µM | > 100 µM | > 100 µM | > 100 µM | – | – | – |
| N#CCN1CCOCCOCCN(CC#N)CCOCCOCC1 | > 100 µM | > 100 µM | > 100 µM | > 100 µM | – | > 100 µM | – | – | – |
| CCOC(=O)[C@H]1Nc2ccc(Cl)cc2[C@H]2OCC[C@@H]12 | > 100 µM | > 100 µM | > 100 µM | > 100 µM | > 100 µM | > 100 µM | – | – | – |
| Nc1nc(N)c(N=O)c(Nc2ccc(I)cc2)n1 | 64.9 µM | 60.6 µM | > 100 µM | 66.6 µM | – | – | – | – | – |
| O=C1c2ccccc2-c2n[nH]c3cccc1c23 | – | – | – | – | – | – | > 100 µM | > 100 µM | GI50 [7]: 19.3 µM; TGI [9]: > 100 µM; GI50 [8]: 17.8 µM |
| CCC[CH2][Sn]([CH2]CCC)([O]C(=O)c1cc(OC)c(OC)cc1OC)[O]C(=O)c1cc(OC)c(OC)cc1OC | 1.95 µM | 1.22 µM | 2.36 µM | 2.41 µM | 2.16 µM | 2.93 µM | – | – | GI50 [1]: 0.492 µM; GI50 [2]: 0.346 µM; GI50 [3]: 1.03 µM; GI50 [6]: 1.37 µM; GI50 [4]: 0.68 µM; GI50 [5]: 0.767 µM |
| Cc1c(C(=O)/C=C/c2ccccc2Cl)[n+](=O)c2ccccc2n1[O-] | 20.1 µM | 20 µM | 29.1 µM | 44.3 µM | – | 36.5 µM | – | – | – |
| CC1(O)CC2(O)C=CC3=C(C(=O)c4cccc(O)c4C3=O)C2(O)C(=O)C1O (stereo not given) | 3.44 µM | 1.08 µM | 1.76 µM | – | – | – | 2.58 µM | 17.1 µM | TGI [9]: 3.24 µM |

| Compound | TGI [1] | TGI [2] | TGI [3] | TGI [4] | TGI [5] | TGI [6] | TGI [7] | TGI [8] | other results |
| --- | --- | --- | --- | --- | --- | --- | --- | --- | --- |
| OCCNc1ncnc2c1ncn2C1OC(CO)C(O)C1O (stereo not given) | – | – | – | – | – | – | > 100 µM | > 100 µM | TGI [9]: > 100 µM |
| CC(=O)Nc1ccccc1-c1cnc2ccccc2n1 | > 100 µM | > 100 µM | > 100 µM | > 100 µM | > 100 µM | – | – | – | – |
| NC(CSc1nc2ccccn2c1[N+](=O)[O-])C(=O)O (stereo not given) | – | – | – | – | – | – | > 100 µM | > 100 µM | TGI [9]: > 100 µM |
| O=C(O)C[O][Sb][O]CC(=O)O | – | – | – | – | – | – | > 100 µM | > 100 µM | GI50 [7]: > 100 µM; GI50 [9]: > 100 µM; TGI [9]: > 100 µM; GI50 [8]: > 100 µM |
| O=C(/C=C/c1ccccc1O)c1cccnc1 | – | > 100 µM | > 100 µM | > 100 µM | > 100 µM | > 100 µM | – | – | – |
| COc1cc2ccnc(-c3c4ccccc4c(N)c4c(OC)c(OC)ccc34)c2cc1OC | 4.71 µM | 15.7 µM | 13.7 µM | 18.3 µM | 6.75 µM | – | – | – | – |
| COc1cc2c(c(OC)c1OC)-c1ccc(SC)c(=O)cc1[C@@H](NCc1cccc(C#N)c1)CC2 | 0.0347 µM and < 0.0075 µM | > 75 µM | 42.4 µM | – | < 0.0075 µM | 21.6 µM | – | – | GI50 [1]: < 0.0075 µM; GI50 [2]: < 0.0075 µM; GI50 [3]: < 0.0075 µM; GI50 [5]: < 0.0075 µM |
| CC1=CC2=C(C(N)=O)C(=O)OC2(C)C(c2ccccc2)C1 (stereo not given) | – | – | – | – | – | – | > 100 µM | > 100 µM | TGI [9]: > 100 µM |
| CO[C@H]1C[C@@H]2CC[C@@H](C)[C@@](O)(O2)C(=O)C(=O)N2CCCC[C@H]2C(=O)O[C@H]([C@H](C)C[C@@H]2CC[C@@H](OP(C)(C)=O)[C@H](OC)C2)CC(=O)[C@H](C)/C=C(\C)[C@@H](O)[C@@H](OC)C(=O)[C@H](C)C[C@H](C)/C=C/C=C/C=C/1C | – | – | – | – | – | – | 18.6 µM | 18.8 µM | GI50 [7]: < 0.0131 µM; GI50 [8]: < 0.0419 µM |
| N#Cc1cccc(/C=C(/C(=O)c2ccccc2)c2ccccc2)c1 | – | – | – | – | – | – | 15.1 µM | 36.6 µM | GI50 [7]: 4.16 µM; GI50 [8]: 6.27 µM |
| Cc1nc(-c2nc(C)c(C(=O)NN(C)C)s2)sc1C(=O)NN(C)C | – | > 100 µM | > 100 µM | > 100 µM | > 100 µM | – | – | – | – |
| CC[C@H](C)[C@H](NC(=O)Nc1ccccc1)C(=O)N(C)[C@H](C[C@@H](OC(C)=O)c1nc(C(=O)N[C@@H](Cc2ccccc2)C[C@H](C)C(=O)OC)cs1)C(C)C | – | – | – | – | – | – | 41.2 µM | > 100 µM | GI50 [7]: 3.09 µM; GI50 [8]: 3.47 µM |
| O=C(O)c1ccc(NCc2nc3cc4ccccc4cc3[nH]2)cc1 | – | – | – | – | – | – | > 100 µM | > 100 µM | TGI [9]: > 100 µM |
| CC(=O)C1C(=O)C(=O)N(c2ccccc2N2C(=O)C(=O)C(C(C)=O)C2=O)C1=O (stereo not given) | > 100 µM | > 100 µM | > 100 µM | > 100 µM | – | > 100 µM | – | – | – |
| Nc1ncnc2c(C3OC(CO)C(O)C3O)scc12 (stereo not given) | 0.548 µM and 0.31 µM | 12.9 µM | 3.4 µM and 2.31 µM | – | 0.353 µM and 0.581 µM | – | – | – | GI50 [2]: 0.365 µM; GI50 [3]: 0.147 µM |
| c1ccc(-c2nnc(Nc3ccc4c(c3)OCCO4)o2)c(NCc2ccncc2)c1 | – | – | – | – | – | – | 7.01 µM | > 52.7 µM | GI50 [7]: 0.0589 µM; GI50 [8]: 0.0301 µM |
| O=C(CC(=O)Nc1ccccc1O)Nc1ccccc1O | 12.6 µM | 63.9 µM | 28.4 µM | > 100 µM | – | 49.9 µM | – | – | – |
| S=C=NCc1ccccc1 | – | – | – | – | – | – | 5.12 µM | 19.8 µM | TGI [9]: 12.4 µM |
| CN1CCN(Cc2ccc(NC(=O)c3nc4ccc5[nH]ncc5c4c4c3CCC4)cc2C(F)(F)F)CC1 | – | – | – | – | – | – | 14.9 µM | 2.12 µM | GI50 [7]: 7.61 µM; GI50 [8]: 0.926 µM |
| COc1cc(/C=C/c2ccc(OC(C)=O)cc2)cc(OC)c1OC | 94.2 µM | > 100 µM | > 100 µM | > 100 µM | – | > 100 µM | – | – | – |
| CN(C)CCNC(=O)Cn1ccc(=O)c2ccc([N+](=O)[O-])cc21 | – | – | – | – | – | – | – | > 100 µM | TGI [9]: > 100 µM |
| C/C1=C\C/C=C(\C)[C@H]2CC(CC/C(C)=C/CC1)[C@@](C)(CO)O2 | – | – | – | – | – | – | > 100 µM | > 100 µM | GI50 [7]: > 100 µM; GI50 [8]: 68.5 µM |
| CC(=O)OC1C/C(C)=C/CCC(C)/C=C/C2(C)CCC(C(C)(C)O)C12 (stereo not given) | > 100 µM | > 100 µM | 88.6 µM | > 100 µM | > 100 µM | – | – | – | – |
